Data published in US9260461B2, “Water-soluble derivatives and prodrugs of acacetin and methods of making and using thereof” (Versitech Limited, priority 2014, dated 2016).

Legend:
[1] = molecular target: T1, Kv1.5 current (hKV1.5 gene expressed in HEK 293 cells) (Homo sapiens, UniProt P22460); assay: Whole-cell patch-clamp, Kv1.5 current in HEK 293 cells; type: cell-based; details: 30 μM, representative cells
T1 construct: expressed in transfected cells
Method: (§1) HEK 293 cell line stably expressing the hKV1.5 gene (Wu et al., 2011) or hKv4.3 gene (Wu et al., 2013) was maintained in Dulbecco's modified eagle's medium (DMEM, Invitrogen, Hong Kong) supplemented with 10% fetal bovine serum and 400 μg/mL G418 in a 5% CO2 incubator. Cells were seeded on a glass cover slip for electrophysiology recording.
(§2) Ionic currents in HEK 293 cell lines and rat atrial myocytes were measured by the standard whole-cell patch-clamp technique using a standard pipette and bath solution with an EPC-10 amplifier and Pulse software (HEKA, Lambrecht, Germany). A 3M KCl-agar salt bridge was used as the reference electrode. The current signal was sampled at 5 kHz, recorded and stored in the hard disk of an IBM compatible computer. All experiments were conducted at room temperature (22-23° C.).
(§3) However, Kv1.5 current (FIG. 3D), Kv4.3 current (FIG. 3E) or IKACh (FIG. 3F) was inhibited by 10 μM acacetin in representative cells consistent with experimental reports.

[2] = molecular target: T2, Kv4.3 current (hKv4.3 gene expressed in HEK 293 cells) (Homo sapiens, UniProt Q9UK17); assay: Whole-cell patch-clamp, Kv4.3 current in HEK 293 cells; type: cell-based; details: 30 μM, representative cells
T2 construct: expressed in transfected cells
T2 sequence (Q9UK17 1-655): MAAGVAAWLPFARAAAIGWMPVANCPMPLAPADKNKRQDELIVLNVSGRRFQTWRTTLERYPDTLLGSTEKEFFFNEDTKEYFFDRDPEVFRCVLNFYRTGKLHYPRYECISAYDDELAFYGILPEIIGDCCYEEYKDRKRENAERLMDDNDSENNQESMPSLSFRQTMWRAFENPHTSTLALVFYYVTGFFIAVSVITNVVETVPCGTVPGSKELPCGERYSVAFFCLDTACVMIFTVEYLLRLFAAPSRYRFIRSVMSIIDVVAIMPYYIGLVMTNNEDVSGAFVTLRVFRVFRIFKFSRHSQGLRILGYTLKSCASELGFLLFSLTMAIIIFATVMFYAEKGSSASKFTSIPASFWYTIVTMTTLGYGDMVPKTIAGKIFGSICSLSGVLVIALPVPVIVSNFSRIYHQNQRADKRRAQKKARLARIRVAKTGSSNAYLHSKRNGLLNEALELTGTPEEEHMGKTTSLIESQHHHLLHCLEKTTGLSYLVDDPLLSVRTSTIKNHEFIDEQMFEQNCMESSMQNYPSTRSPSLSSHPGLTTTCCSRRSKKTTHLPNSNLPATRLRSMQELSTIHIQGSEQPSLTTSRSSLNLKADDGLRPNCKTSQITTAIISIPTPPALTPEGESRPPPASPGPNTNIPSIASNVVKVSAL
Method: as §1, §2, §3

[3] = In vivo conversion of prodrugs to acacetin, HPLC of blood samples from anesthetized rats; parameters: species or system SD rats
Method: Male SD rats (250-300 g) was anesthetized with phenobarbital (30 mg/kg, i.p.), and the jugular vein and femoral vein were cannulated for drug administration and blood sample collection. Tracheal cannulation was also performed for ventilation. Drug (20 mg/kg) was administrated for 30-60 min, and blood samples (˜0.2 mL) were collected before and at 5, 15, 30, 60, 90, and 120 min after drug administration using ascorbic acid and EDTA-preserved microcentrifuge tubes (1.5 mL) for HPLC (high-performance liquid chromatography) analysis of acacetin conversion.
The samples were stored in a −80° C. freezer until HPLC analysis for acacetin content. Except for the double blanks, pentamethylquercetin (500 ng/mL) was used for concentration calibration. The analysis was carried out on a Waters HPLC system (Milford, Mass.) equipped with an Alltech column (C18, 250 mm×4.6 mm i.d., 5 μm, Grace, Deerfield, Ill.). The mobile phase consisted of 45% acetonitrile in 1% of acetic acid. The UV detector was set at a single wavelength of 260 nm. The lower limit of quantification was 50 ng/mL.
The in vivo conversion of water-soluble prodrug A was determined in anesthetized SD rats. Prodrug A (20 mg/kg i.v.) was infused for 30-60 min, and levels of the parent compound acacetin in blood plasma were determined by HPLC analysis.

T1 sequence (P22460 whole entry): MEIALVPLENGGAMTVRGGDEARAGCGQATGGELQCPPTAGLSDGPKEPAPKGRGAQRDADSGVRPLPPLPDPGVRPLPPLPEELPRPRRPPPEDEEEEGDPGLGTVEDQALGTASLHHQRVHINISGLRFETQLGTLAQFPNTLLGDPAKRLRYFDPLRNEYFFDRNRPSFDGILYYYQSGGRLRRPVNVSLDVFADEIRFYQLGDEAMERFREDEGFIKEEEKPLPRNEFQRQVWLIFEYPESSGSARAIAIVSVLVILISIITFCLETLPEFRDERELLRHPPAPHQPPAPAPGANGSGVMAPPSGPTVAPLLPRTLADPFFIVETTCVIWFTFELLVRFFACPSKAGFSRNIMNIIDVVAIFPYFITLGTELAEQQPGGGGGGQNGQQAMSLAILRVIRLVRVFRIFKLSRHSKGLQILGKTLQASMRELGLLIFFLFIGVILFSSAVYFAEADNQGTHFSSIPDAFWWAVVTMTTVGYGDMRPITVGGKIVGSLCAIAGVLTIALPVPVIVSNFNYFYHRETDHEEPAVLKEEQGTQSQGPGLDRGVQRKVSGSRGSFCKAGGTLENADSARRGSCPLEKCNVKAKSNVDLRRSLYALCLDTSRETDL

Compound: COc1ccc(-c2cc(=O)c3c(O)cc(OP(=O)(O)O)cc3o2)cc1 [Prodrug A]
- effect on Kv1.5 current [1]: no inhibitory effect
- effect on Kv4.3 current [2]: no inhibitory effect
- concentrations of acacetin at different time-points after prodrug administration [3]: can reach therapeutic concentrations
